The record followed here is US20050220779A1, “Integrin linked kinase modulation of macrophage activation” (priority 2001, published 2005).

For experiment [1], the system named is COX-2. As to the kind of experiment: COX-2 protein expression in LPS-IFN-γ stimulated macrophages (western blot). To be noted: LPS-IFN-γ stimulated macrophages, western blot. The class given is cell-based, murine. The procedure: Western blot analysis. After incubation with the indicated stimuli in the presence of ILK inhibitors, cells (duplicate samples, 2×10^6cell/6-wells plate) were washed in PBS and lysed on ice in 60 μl of lysis buffer. The protein content of each sample was determined using the Bradford protein assay kit (Bio-Rad, Richmond, Calif.). Absorbance was measured at 750 nm with a Beckman DU530 spectrophotometer (Palo Alto, Calif.). Proteins were mixed with 45×SDS sample buffer. Following separation of proteins by SDS-PAGE, using 8% bis-acrylamide in the separation gel, the proteins were transferred from the gels onto PVDF membranes using a MiniProtean III Cell (Bio-Rad), at 100 V for 1.5 h. Equal amounts of protein (5 μg) were loaded onto SDS-PAGE gels and examined by Western blot analysis with anti-Actin, anti-iNOS, anti-COX-2 murine monoclonal antibodies according to the manufacturers specifications (Transduction Laboratories). […] The Multi-Analyst/PC system from Biorad is being used to quantitate the bands of the expressed protein on the film. […] White light is chosen as the selected light source, thus the signal strength is measured in OD (optic density) units. […]
Effects of ILK inhibitors on the LPS-IFN-γ-induced iNOS and COX-2 expression NO production requires that iNOS be enzymatically activity, therefore experiments were performed to examine whether the inhibitory effect of ILK inhibitors was mediated by […] iNOS protein synthesis or effects on the activity of existing enzyme. Stimulated cells were treated with ILK inhibitors (25 μM), and lysed 16 h later and a western blot analysis was performed to quantitate iNOS protein expression. […]
Nitric oxide and Prostaglandin E2 are two pleiotropic mediators produced at inflammatory sites by the inducible enzymes iNOS and cyclooxygenase-2 (COX-2), respectively. […] Finally, we evaluated the in-vitro effects of compounds on production of MCP-1 chemokine by TNF-α stimulated HUVEC cells. […]
(A western blot detects proteins with antibodies after separation by electrophoresis.)

The test system of experiment [2] is HUVEC cells. As to the kind of experiment: In vitro Matrigel morphogenesis (tube formation) assay of VEGF stimulated HUVEC cells. It is filed as cell-based, human. To be noted: 100 mM (so in the source). The procedure:
In Vitro Angiogenesis. […] After 5 hours of incubation in a 5% CO2-humidified atmosphere at 37 °C, the three-dimensional organization of the cells was examined using an inverted photomicroscope. The cells were fixed with Crystal Violet (0.05% in 20% ethanol) and digitally photographed.
To determine the anti-angiogenic properties of ILK inhibitors, an in vitro Matrigel morphogenesis assay was established. This assay evaluates the ability of endothelial cells to differentiate into capillary-like structures, a crucial step during neovascularization. HUVEC cells when stimulated with VEGF and seeded onto Matrigel rapidly attach to the matrix and begin to migrate and interact with the extracellular matrix proteins present in the Matrigel. […] These capillary-like structures can be assessed by histology (FIG. 2). Samples are cut on a cross section and subsequent viewed using an electron microscope. Typically, cylindrical formations with a lumen are observed. A distinct difference in the morphology of tube formation on Matrigel, compared to other in vitro angiogenesis assays is a reduction in the proliferation of endothelial cells. […] Using this model system, both inhibitors and stimulators of angiogenesis can be assessed prior to in vivo testing.
The assay was established and reproducibility confirmed. SU5416, shown to inhibit angiogenesis in other assays, was also evaluated. […]

The target in experiment [3] is SRC (Homo sapiens, UniProt P12931). As to the kind of experiment: Protein kinase selectivity, SRC. The class given is biochemical.
The target in experiment [4] is GSK3β (Homo sapiens, UniProt P49841). The experiment in a line: Protein kinase selectivity, GSK3β. It is filed as biochemical.
For experiment [5], the target named is CDC2 (Homo sapiens, UniProt P06493). As to the kind of experiment: Protein kinase selectivity, CDC2. It is filed as biochemical.
Experiment [6] addresses CK2 (Homo sapiens, UniProt P68400). The experiment in a line: Protein kinase selectivity, CK2. It is filed as biochemical.
Experiment [7] has as its target ERK1 (Homo sapiens, UniProt P27361). As to the kind of experiment: Protein kinase selectivity, ERK1. It is filed as biochemical.

Sequence of CDC2 (P06493 whole entry, species assumed): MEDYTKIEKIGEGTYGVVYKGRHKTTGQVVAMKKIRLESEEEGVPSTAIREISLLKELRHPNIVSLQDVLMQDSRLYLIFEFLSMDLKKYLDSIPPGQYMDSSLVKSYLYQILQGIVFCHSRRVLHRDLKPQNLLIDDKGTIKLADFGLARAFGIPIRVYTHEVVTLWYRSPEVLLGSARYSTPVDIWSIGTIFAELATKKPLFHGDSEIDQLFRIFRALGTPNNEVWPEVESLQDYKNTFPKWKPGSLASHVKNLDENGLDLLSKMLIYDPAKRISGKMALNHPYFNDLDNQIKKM
Sequence of CDC2 (P14635 whole entry partner, species assumed): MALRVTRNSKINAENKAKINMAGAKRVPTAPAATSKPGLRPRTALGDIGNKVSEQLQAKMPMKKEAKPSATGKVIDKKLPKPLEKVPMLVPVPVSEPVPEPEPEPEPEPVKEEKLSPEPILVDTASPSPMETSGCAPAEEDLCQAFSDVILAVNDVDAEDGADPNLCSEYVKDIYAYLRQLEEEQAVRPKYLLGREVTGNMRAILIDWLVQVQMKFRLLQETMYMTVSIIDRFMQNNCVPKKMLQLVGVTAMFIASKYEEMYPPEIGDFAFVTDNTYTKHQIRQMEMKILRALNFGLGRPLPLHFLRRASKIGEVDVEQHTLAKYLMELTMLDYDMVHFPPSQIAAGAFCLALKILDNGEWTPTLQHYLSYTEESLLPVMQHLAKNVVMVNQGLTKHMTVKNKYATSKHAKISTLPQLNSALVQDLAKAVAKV
Sequence of GSK3β (P49841 whole entry, species assumed): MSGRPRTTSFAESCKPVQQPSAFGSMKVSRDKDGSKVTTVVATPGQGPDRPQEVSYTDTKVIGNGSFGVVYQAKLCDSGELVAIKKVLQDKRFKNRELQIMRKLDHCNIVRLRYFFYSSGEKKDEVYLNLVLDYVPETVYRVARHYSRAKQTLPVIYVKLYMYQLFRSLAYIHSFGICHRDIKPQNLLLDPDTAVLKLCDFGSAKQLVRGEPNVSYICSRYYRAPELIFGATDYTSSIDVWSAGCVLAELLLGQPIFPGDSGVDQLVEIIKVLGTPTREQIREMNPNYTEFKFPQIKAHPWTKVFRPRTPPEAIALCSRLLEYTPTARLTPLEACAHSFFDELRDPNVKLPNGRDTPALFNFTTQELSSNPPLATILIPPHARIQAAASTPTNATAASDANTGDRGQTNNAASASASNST
Sequence of SRC (P12931 whole entry, species assumed): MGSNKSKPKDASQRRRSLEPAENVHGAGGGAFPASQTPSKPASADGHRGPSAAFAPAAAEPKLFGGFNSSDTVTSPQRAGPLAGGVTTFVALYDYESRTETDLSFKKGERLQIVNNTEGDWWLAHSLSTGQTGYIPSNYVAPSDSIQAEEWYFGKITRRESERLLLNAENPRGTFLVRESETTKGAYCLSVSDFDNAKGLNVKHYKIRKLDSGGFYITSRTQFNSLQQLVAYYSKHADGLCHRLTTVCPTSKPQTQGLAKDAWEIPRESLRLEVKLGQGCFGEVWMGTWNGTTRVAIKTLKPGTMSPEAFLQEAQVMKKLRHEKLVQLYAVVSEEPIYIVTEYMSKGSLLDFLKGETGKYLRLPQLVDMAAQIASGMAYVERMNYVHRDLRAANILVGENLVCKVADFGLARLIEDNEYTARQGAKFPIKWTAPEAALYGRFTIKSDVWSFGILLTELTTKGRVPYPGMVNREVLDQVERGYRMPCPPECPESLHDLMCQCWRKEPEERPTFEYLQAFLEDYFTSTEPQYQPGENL
Sequence of ERK1 (P27361 whole entry, species assumed): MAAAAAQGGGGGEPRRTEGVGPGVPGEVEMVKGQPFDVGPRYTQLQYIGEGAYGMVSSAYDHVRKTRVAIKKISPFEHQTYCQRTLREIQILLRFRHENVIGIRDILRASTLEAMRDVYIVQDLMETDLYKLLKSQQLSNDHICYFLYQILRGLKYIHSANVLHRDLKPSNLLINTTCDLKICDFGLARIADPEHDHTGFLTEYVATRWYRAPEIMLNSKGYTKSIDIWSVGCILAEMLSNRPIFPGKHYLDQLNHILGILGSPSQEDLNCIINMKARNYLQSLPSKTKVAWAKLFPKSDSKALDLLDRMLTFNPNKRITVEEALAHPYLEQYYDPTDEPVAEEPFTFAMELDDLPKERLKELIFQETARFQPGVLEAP
Sequence of CK2 (P68400 whole entry): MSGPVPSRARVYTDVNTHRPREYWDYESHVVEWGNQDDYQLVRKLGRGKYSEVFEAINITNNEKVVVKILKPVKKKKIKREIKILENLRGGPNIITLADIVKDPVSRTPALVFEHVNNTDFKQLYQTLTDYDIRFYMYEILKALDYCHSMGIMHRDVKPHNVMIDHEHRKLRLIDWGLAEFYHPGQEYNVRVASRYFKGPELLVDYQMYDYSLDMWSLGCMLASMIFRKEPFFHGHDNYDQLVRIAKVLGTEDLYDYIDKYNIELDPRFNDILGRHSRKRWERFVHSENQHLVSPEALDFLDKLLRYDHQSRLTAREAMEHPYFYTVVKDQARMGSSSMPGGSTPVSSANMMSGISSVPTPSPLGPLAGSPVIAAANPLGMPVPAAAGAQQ

Consider `N=C(N)N/N=C/c1ccc(Cl)cc1Cl` [KP-16735], for which, in experiment [1], the “COX-2 protein expression (in words)” value is on record as “significant decrease of COX-2 protein expression”.

Regarding `Oc1ccc2c(c1)CC1NCCc3cc(O)c(O)c-2c31` (centres unmarked) [KP-21849, 5,6,6a,7-Tetrahydro-4H-dibenzo[de,g]quinoline-1,2,9-triol], the “COX-2 protein expression (in words)” value in experiment [1] is on record as “significant decrease of COX-2 protein expression”. For the same compound, in experiment [2], the “Effect on endothelial cell morphogenesis (in words)” value is recorded as “profound effect on HUVEC cells”. Further, the “Inhibition of SRC (in words)” value in experiment [3] is listed as “does not significantly inhibit”. Further, the “Inhibition of GSK3β (in words)” value in experiment [4] is given as “does not significantly inhibit”. For the same compound, in experiment [5], the “Inhibition of CDC2 (in words)” value is on record as “does not significantly inhibit”. In addition, the “Inhibition of CK2 (in words)” value in experiment [6] was “does not significantly inhibit”. In addition, in experiment [7], the “Inhibition of ERK1 (in words)” value is on record as “does not significantly inhibit”.
